Key:
[1] = system: TEAD response element (TRE) luciferase reporter in MCF-7 cell lines; test: TEAD response element (TRE) reporter assay; format: cell-based; conditions: Homo sapiens, MCF7; 0.2 μM compound, 24 hours, MCF-7 TEAD reporter cells, relative to vehicle (1% DMSO)
Description: MCF-7 cell lines injected with TEAD reporter genes expressing firefly luciferase upon activation of TEAD response element (TRE) were obtained from BPS bioscience (#60618). The TEAD reporter genes were injected to stable expression in the MCF-7 cell lines.
TEAD reporter genes expressing firefly luciferase upon activation of TEAD response element (TRE) were injected with TEAD reporter genes to ensure stable expression of the TEAD reporter genes. Here, the TEAD reporter genes expresses firefly luciferase upon activation of TEAD response element (TRE). The cells were cultured in a cell-only culture medium (BPS bioscience) to which 10 μg/mL insulin (Sigma) was added at 37° C. and 5% CO2.
In 24 hours after dispensing said cells into a 96-well plate, each of the compounds of the examples or a vehicle solvent (final 1% DMSO) was treated by being diluted with a serum-free culture medium so that the final concentration became 0.2 μM. In 24 hours after said treatment, a luciferase assay working solution (ONE-Step Luciferase assay reagent; BPS bioscience) containing a luciferase substrate was treated in each well at 100 μL, and then left in a shaker for 15 minutes to be well mixed. Then, a degree of luminescence generated by luciferase expressed according to TEAD activation was measured by a microplate reader (TECAN). A relative activity of luciferase […], and the results are shown in table 8 below.

[2] = molecular target: T1, recombinant GST-TEAD1 proteins (209 to 426 a.a.) (Homo sapiens, UniProt P28347); test: Evaluation of palmitoylation of TEAD protein; format: biochemical; conditions: 5 μM compound, 15 minutes preincubation, 3 μM alkyne palmitoyl-CoA 30 minutes, pH 6.4, vs DMSO control
T1 construct: recombinant GST-TEAD1 proteins (209 to 426 a.a.)
Description: Each compound corresponding to a concentration of 5 μM was added to recombinant GST-TEAD1 proteins (209 to 426 a.a.) and cultured for 15 minutes. For an autopalmitoylation reaction of proteins after culturing, 3 μM alkyne palmitoyl-CoA (Cayman chemical) and 50 mM MES buffer (pH 6.4) were added and cultured for 30 minutes, after which 1% of sodium dodecyl sulfate (SDS) was added to stop the reaction. After that, biotinylation was performed through a CLICK (Click chemistry tools) reaction, and then a protein solution was concentrated to prepare a sample.
Analysis of the sample was performed using SDS-PAGE and streptavidin HRP (Thermo scientific). The resulting values were quantified using an Image J (NIH). For the intensity of the band obtained from Streptavidin blot, a palmitoylation inhibitory activity was analyzed based on the control group (DMSO). The normalization of each sample was performed using an anti-GST (91G1) (cell signaling) antibody.

T1 sequence (P28347 209-426): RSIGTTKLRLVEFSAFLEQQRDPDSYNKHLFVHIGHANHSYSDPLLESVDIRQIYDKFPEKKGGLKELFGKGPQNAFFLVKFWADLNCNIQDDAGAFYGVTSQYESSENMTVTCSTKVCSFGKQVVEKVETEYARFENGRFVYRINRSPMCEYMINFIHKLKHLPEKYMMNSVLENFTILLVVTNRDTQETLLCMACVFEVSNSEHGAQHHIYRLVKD

C=CC(=O)Nc1cnc2c(c1)c(C)cn2Cc1ccc(OC(F)(F)F)cc1 [Compound 45, N-(3-methyl-1-(4-(trifluoromethoxy)benzyl)-1H-pyrrolo[2,3-b]pyridin-5-yl)acrylamide] was tested, and the inhibition at 0.2 µM [1] was > 50% and the inhibition at 5 µM [2] was 40 to 80%.

C=CC(=O)Nc1ccc2c(c1)CCN2Cc1ccc(C(F)(F)F)cc1 [Compound 7, N-(1-(4-(trifluoromethyl)benzyl)indolin-5-yl)acrylamide] was tested, and the inhibition at 0.2 µM [1] was > 50% and the inhibition at 5 µM [2] was > 80%.

C=CC(=O)Nc1cnc2c(c1)c(C)nn2-c1ccc(OCC(C)C)cc1 [Compound 78, N-(1-(4-isobutoxyphenyl)-3-methyl-1H-pyrazolo[3,4-b]pyridin-5-yl)acrylamide] was tested, and the inhibition at 0.2 µM [1] was < 30% and the inhibition at 5 µM [2] was 40 to 80%.

Molecule C=CC(=O)Nc1cnc2c(c1)c(C)nn2-c1ccc(C(C)CC)cc1 (stereo not drawn) [Compound 80, N-(1-(4-(sec-butyl)phenyl)-3-methyl-1H-pyrazolo[3,4-b]pyridin-5-yl)acrylamide] has an inhibition at 0.2 µM [1] of 30 to 50% and an inhibition at 5 µM [2] of 40 to 80%.

C=CC(=O)Nc1cnc2c(c1)c(C)cn2-c1ccc(OC(F)(F)F)cc1 [Compound 58, N-(3-methyl-1-(4-(trifluoromethoxy)phenyl)-1H-pyrrolo[2,3-b]pyridin-5-yl)acrylamide] was tested, and the inhibition at 0.2 µM [1] was < 30% and the inhibition at 5 µM [2] was > 80%.

For C=CC(=O)Nc1cnc2c(c1)c(C)cn2Cc1cccc(C(F)(F)F)c1 [Compound 55, N-(3-methyl-1-(3-(trifluoromethyl)benzyl)-1H-pyrrolo[2,3-b]pyridin-5-yl)acrylamide], the inhibition at 0.2 µM [1] was > 50% and the inhibition at 5 µM [2] was 40 to 80%.

With C=CC(=O)Nc1cnc2c(ccn2-c2ccc(C(F)(F)F)cc2)n1 [Compound 46, N-(5-(4-(trifluoromethyl)phenyl)-5H-pyrrolo[2,3-b]pyrazin-2-yl)acrylamide] the inhibition at 0.2 µM [1] was < 30% and the inhibition at 5 µM [2] was 40 to 80%.

Work on C=CC(=O)Nc1cnc2c(c1)c(C)nn2-c1ccc(C(F)(F)F)c(Cl)c1 [Compound 72, N-(1-(3-chloro-4-(trifluoromethyl)phenyl)-3-methyl-1H-pyrazolo[3,4-b]pyridin-5-yl)acrylamide] yielded an inhibition at 0.2 µM [1] of 30 to 50% and an inhibition at 5 µM [2] of 40 to 80%.

With C=CC(=O)Nc1ncc2c(C)nn(Cc3ccc(C(F)(F)F)cc3)c2n1 [Compound 20, N-(3-methyl-1-(4-(trifluoromethyl)benzyl)-1H-pyrazolo[3,4-d]pyrimidin-6-yl)acrylamide] the inhibition at 0.2 µM [1] was < 30% and the inhibition at 5 µM [2] was < 40%.

For C=CC(=O)Nc1cnc2c(c1)c(C)nn2-c1ccccc1Br [Compound 83, N-(1-(2-bromophenyl)-3-methyl-1H-pyrazolo[3,4-b]pyridin-5-yl)acrylamide], the inhibition at 0.2 µM [1] was < 30% and the inhibition at 5 µM [2] was < 40%.

C=CC(=O)Nc1cnc2c(ccn2Cc2ccc(C(F)(F)F)cc2)c1 [Compound 4, N-(1-(4-(trifluoromethyl)benzyl)-1H-pyrrolo[2,3-b]pyridin-5-yl)acrylamide] gave an inhibition at 0.2 µM [1] of 30 to 50% and an inhibition at 5 µM [2] of 40 to 80%.

With C=CC(=O)Nc1cnc2c(c1)c(C)nn2Cc1ccc(C(F)(F)F)c(OC)c1 [Compound 61, N-(1-(3-methoxy-4-(trifluoromethyl)benzyl)-3-methyl-1H-pyrazolo[3,4-b]pyridin-5-yl)acrylamide] the inhibition at 0.2 µM [1] was > 50% and the inhibition at 5 µM [2] was < 40%.

C=CC(=O)Nc1cnc2c(c1)c(C)nn2Cc1cccc(C(F)(F)F)c1 [Compound 56, N-(3-methyl-1-(3-(trifluoromethyl)benzyl)-1H-pyrazolo[3,4-b]pyridin-5-yl)acrylamide] was tested, and the inhibition at 0.2 µM [1] was > 50% and the inhibition at 5 µM [2] was < 40%.

With C=CC(=O)Nc1cnc2c(ccn2Cc2ccc(C(F)(F)F)cc2)c1OC [Compound 18, N-(4-methoxy-1-(4-(trifluoromethyl)benzyl)-1H-pyrrolo[2,3-b]pyridin-5-yl)acrylamide] the inhibition at 0.2 µM [1] was 30 to 50% and the inhibition at 5 µM [2] was > 80%.

C=CC(=O)Nc1cnc2c(c1)c(C)nn2-c1ccc(O)cc1 [Compound 98, N-(1-(4-hydroxyphenyl)-3-methyl-1H-pyrazolo[3,4-b]pyridin-5-yl)acrylamide] was tested, and the inhibition at 0.2 µM [1] was < 30% and the inhibition at 5 µM [2] was < 40%.

For C=CC(=O)Nc1cnc2c(c1)c(C)cn2-c1ccc(C2CCCCC2)cc1 [Compound 37, N-(1-(4-cyclohexylphenyl)-3-methyl-1H-pyrrolo[2,3-b]pyridin-5-yl)acrylamide], the inhibition at 0.2 µM [1] was < 30% and the inhibition at 5 µM [2] was > 80%.

In the case of C=CC(=O)Nc1cnc2c(c1)c(C)cn2Cc1ccc(C(C)(C)C)cc1 [Compound 44, N-(1-(4-(tert-butyl)benzyl)-3-methyl-1H-pyrrolo[2,3-b]pyridin-5-yl)acrylamide], the inhibition at 0.2 µM [1] is reported as < 30% and the inhibition at 5 µM [2] is reported as 40 to 80%.

C=CC(=O)Nc1cnc2c(c1)c(C)nn2-c1cccnc1 [Compound 94, N-(3-methyl-1-(pyridin-3-yl)-1H-pyrazolo[3,4-b]pyridin-5-yl)acrylamide] was tested, and the inhibition at 0.2 µM [1] was < 30% and the inhibition at 5 µM [2] was < 40%.

C=CC(=O)Nc1cnc2c(c1)c(C)cn2Cc1ccc(C(F)(F)F)c(OC)c1 [Compound 53, N-(1-(3-methoxy-4-(trifluoromethyl)benzyl)-3-methyl-1H-pyrrolo[2,3-b]pyridin-5-yl)acrylamide] was tested, and the inhibition at 0.2 µM [1] was > 50% and the inhibition at 5 µM [2] was < 40%.

With C=CC(=O)Nc1ccc2c(Br)nn(Cc3ccc(C(F)(F)F)cc3)c2c1 [Compound 38, N-(3-bromo-1-(4-(trifluoromethyl)benzyl)-1H-indazol-6-yl)acrylamide] the inhibition at 0.2 µM [1] was 30 to 50% and the inhibition at 5 µM [2] was > 80%.

CC=CC(=O)Nc1cnc2c(c1)c(C)nn2-c1ccc(C(F)(F)F)cc1 [Compound 88, N-(3-methyl-1-(4-(trifluoromethyl)phenyl)-1H-pyrazolo[3,4-b]pyridin-5-yl)but-2-enamide] showed an inhibition at 0.2 µM [1] of 30 to 50% and an inhibition at 5 µM [2] of 40 to 80%.

In the case of C=CC(=O)Nc1ccc2c(cnn2Cc2ccc(C(F)(F)F)cc2)c1 [Compound 6, N-(1-(4-(trifluoromethyl)benzyl)-1H-indazol-5-yl)acrylamide], the inhibition at 0.2 µM [1] is reported as 30 to 50% and the inhibition at 5 µM [2] is reported as > 80%.

For C=CC(=O)Nc1cnc2c(c1)c(C)nn2CCC(C)C [Compound 48, N-(1-isopentyl-3-methyl-1H-pyrazolo[3,4-b]pyridin-5-yl)acrylamide], the inhibition at 0.2 µM [1] was > 50% and the inhibition at 5 µM [2] was 40 to 80%.

With C=CC(=O)N(C)c1cnc2c(c1)c(C)nn2-c1ccc(Cl)cc1 [Compound 91, N-(1-(4-chlorophenyl)-3-methyl-1H-pyrazolo[3,4-b]pyridin-5-yl)-N-methylacrylamide] the inhibition at 0.2 µM [1] was > 50% and the inhibition at 5 µM [2] was > 80%.

With C=CC(=O)Nc1cnc2c(c1)c(C)nn2-c1ccc(OC(F)(F)F)nc1 [Compound 103, N-(3-methyl-1-(6-(trifluoromethoxy)pyridin-3-yl)-1H-pyrazolo[3,4-b]pyridin-5-yl)acrylamide] the inhibition at 0.2 µM [1] was > 50% and the inhibition at 5 µM [2] was 40 to 80%.

In the case of C=CC(=O)Nc1cnc2c(c1)c(C)cn2CC1CCC(F)(F)CC1 [Compound 10, N-(1-((4,4-difluorocyclohexyl)methyl)-3-methyl-1H-pyrrolo[2,3-b]pyridin-5-yl)acrylamide], the inhibition at 0.2 µM [1] is reported as > 50% and the inhibition at 5 µM [2] is reported as > 80%.

In the case of C=CC(=O)Nc1cnc2c(c1)c(C)nn2-c1ccc(C(F)(F)F)c(OC)c1 [Compound 64, N-(1-(3-methoxy-4-(trifluoromethyl)phenyl)-3-methyl-1H-pyrazolo[3,4-b]pyridin-5-yl)acrylamide], the inhibition at 0.2 µM [1] is reported as > 50% and the inhibition at 5 µM [2] is reported as 40 to 80%.

For C=CC(=O)Nc1cnc2c(c1)c(C)cn2-c1ccc(C(F)(F)F)c(OC)c1 [Compound 59, N-(1-(3-methoxy-4-(trifluoromethyl)phenyl)-3-methyl-1H-pyrrolo[2,3-b]pyridin-5-yl)acrylamide], the inhibition at 0.2 µM [1] was 30 to 50% and the inhibition at 5 µM [2] was > 80%.

With C=CC(=O)Nc1cnc2c(c1)c(C)cn2-c1ccc(C(C)C)cc1 [Compound 47, N-(1-(4-isopropylphenyl)-3-methyl-1H-pyrrolo[2,3-b]pyridin-5-yl)acrylamide] the inhibition at 0.2 µM [1] was 30 to 50% and the inhibition at 5 µM [2] was > 80%.

Work on C=CC(=O)Nc1cnc2c(cnn2CC2CCC(F)(F)CC2)c1 [Compound 11, N-(1-((4,4-difluorocyclohexyl)methyl)-1H-pyrazolo[3,4-b]pyridin-5-yl)acrylamide] yielded an inhibition at 0.2 µM [1] of 30 to 50% and an inhibition at 5 µM [2] of 40 to 80%.

— patent US20250171451A1, “NOVEL HETEROCYCLIC COMPOUND AND PHARMACEUTICAL COMPOSITION COMPRISING SAME” (Samjin Pharmaceutical Co., Ltd., priority 2022, published 2025)
